# Reference: patent publication US20190224147A1, “CETP MODULATOR FOR USE IN THE TREATEMENT OF EYE DISEASE” (Hoffmann-La Roche Inc., priority 2013, published 2019)
# Marks after values point to notes of the source that are not given here.
# Experiments:
# [1] = Golden Syrian hamsters study b: lutein and zeaxanthin levels in plasma and liver; assay type: in vivo; conditions: hamsters fed 0.1% FLORAGLO, 14 days, dalcetrapib 0.320% (~300 mg/kg) or anacetrapib 0.024% (~25 mg/kg) in diet
# Procedure: Hamsters (7 weeks-old) were fed a standard rodent chow diet containing 4.5% fat and 0.05% cholesterol and coconut oil (70 g/kg dry food) for 14 days. After 2 weeks of high-fat diet feeding, hamsters were allocated to 3 experimental treatment groups of 10 animals each based on plasma lipid levels, and provided the same diet as before supplemented with 0.1% (w/w) FLORAGLO (same composition as for Study 2) and either no treatment (group 1), dalcetrapib at 0.320% (w:w, ˜300 mg/kg, group 2), or anacetrapib at 0.024% (w:w, ˜25 mg/kg, group 3). After 14 days of treatment, plasma and livers were collected for lutein and zeaxanthin analysis as described in study a.
# [2] = Golden Syrian hamsters study b: additional variables measured (cholesterol fractions, triglycerides); assay type: in vivo; conditions: 14 days, dalcetrapib ~300 mg/kg or anacetrapib ~25 mg/kg in diet
# Procedure: Hamsters (7 weeks-old) were fed a standard rodent chow diet containing 4.5% fat and 0.05% cholesterol and coconut oil (70 g/kg dry food) for 14 days. After 2 weeks of high-fat diet feeding, hamsters were allocated to 3 experimental treatment groups of 10 animals each based on plasma lipid levels, and provided the same diet as before supplemented with 0.1% (w/w) FLORAGLO (same composition as for Study 2) and either no treatment (group 1), dalcetrapib at 0.320% (w:w, ˜300 mg/kg, group 2), or anacetrapib at 0.024% (w:w, ˜25 mg/kg, group 3).
# VCAM-1 expression = conditions: pre-incubation of human aortic endothelial cells; Martin K R et al, Atherosclerosis 2000; cited from earlier work
# E-selectin expression = conditions: pre-incubation of human aortic endothelial cells; Martin K R et al, Atherosclerosis 2000; cited from earlier work
# ICAM-1 = conditions: pre-treatment of human aortic endothelial cells; Martin K R et al, Atherosclerosis 2000; cited from earlier work
# [3] = Golden Syrian hamsters study a: lutein and zeaxanthin levels in plasma, liver and eyecups (HPLC-MS); assay type: in vivo; conditions: hamsters fed 0.1% FLORAGLO, dalcetrapib 0.375% food admixture (~400 mg/kg), 14 days
# Procedure: Hamsters (7 weeks-old) were fed a standard rodent chow diet containing 4.5% fat and 0.05% cholesterol and coconut oil (70 g/kg dry food) for 14 days. After two weeks of feeding, hamsters were allocated to 2 experimental groups of 10 animals and given the same diet as before supplemented with 0.1% (w:w) FLORAGLO (lutein 5.2%, zeaxanthin 0.5%, DSM Nutritional Products): group 1 received no treatment, group 2 was given dalcetrapib as a 0.375% food admixture (˜400 mg/kg).
# After 14 days of treatment and 4 hours of fasting, plasma, liver and eyes were collected and kept frozen until analysis. Lutein and zeaxanthin levels in plasma, liver and the pooled eyecups from 2 hamsters were determined by HPLC-MS using cryptoxanthin as internal standard. Plasma samples were directly extracted with hexane/ethyl acetate in dark environment in the presence of BHT. Liver samples and pooled eye cups (n=4) were first homogenized in the presence of BHT using an appropriate solvent in a Precellys tissue homogenizer followed by saponification prior extraction with hexane/ethyl acetate. The organic phase was washed with water. All organic phases were dried and reconstituted in methanol containing 0.1%. HPLC-MS was accomplished on a Waters TQ-S in APCI mode coupled to an Acquity I-class UPLC (Waters AG, Baden-Dättwil) on an ACCLAIM C30 RP column (Thermo Fisher Scientific, Reinach).
SMILES,"Change in liver lutein, in % vs control [1]","Change in liver zeaxanthin, in % vs control [1]","Change in plasma lutein, in % vs control [1]","Change in plasma zeaxanthin, in % vs control [1]","Triglycerides, in % vs control [2]","VLDL-C, in % vs control [2]",reduced VCAM-1 expression (VCAM-1 expression),reduced E-selectin expression (E-selectin expression),reduced the expression of ICAM-1 (ICAM-1),further results
COc1cc(F)c(C(C)C)cc1-c1ccc(C(F)(F)F)cc1CN1C(=O)O[C@H](c2cc(C(F)(F)F)cc(C(F)(F)F)c2)[C@@H]1C [anacetrapib],−32%,−31%,ns,ns,ns,ns,,,,"HDL-C, in % vs control [2]: +54*** %; LDL-C, in % vs control [2]: −99*** %; Total cholesterol, in % vs control [2]: +28** %"
CC1=C(/C=C/C(C)=C/C=C/C(C)=C/C=C/C=C(C)/C=C/C=C(C)/C=C/C2=C(C)CCCC2(C)C)C(C)(C)CCC1 [beta-carotene],,,,,,,29%,38%,11%,
"CCC(CC)CC1(C(=O)Nc2ccccc2SC(=O)C(C)C)CCCCC1 [dalcetrapib, S-[2-([[1-(2-ethylbutyl)-cyclohexyl]-carbonyl]amino)phenyl]2-methylpropanethioate]",+90%,+109%,+95%,+101%,−37** %,−27* %,,,,"Change in liver lutein, in % vs control ([3]; liver): +107%; Change in liver zeaxanthin, in % vs control ([3]; liver): +222.9%; Change in plasma lutein, in % vs control ([3]; plasma): +55.7%; Change in plasma zeaxanthin, in % vs control ([3]; plasma): +164%; Change in eyecups lutein, in % vs control ([3]; pooled eyecups): +164.6%; Change in eyecups zeaxanthin, in % vs control ([3]; pooled eyecups): +114%"
"CC1=C[C@H](O)CC(C)(C)[C@H]1/C=C/C(C)=C/C=C/C(C)=C/C=C/C=C(C)/C=C/C=C(C)/C=C/C1=C(C)C[C@@H](O)CC1(C)C [lutein, (3R,3′R,6′R)-β,ε-Carotene-3,3′-diol]",,,,,,,28%,34%,14%,
CC(C)=CCC/C(C)=C/C=C/C(C)=C/C=C/C(C)=C/C=C/C=C(C)/C=C/C=C(C)/C=C/C=C(\C)CCC=C(C)C [lycopene],,,,,,,13%,,18%,
